≈ marks a conversion by molar mass, not a printed value. Like-named read-outs stand apart in the source and are kept apart here.
Tests used:
Salmonera paratyphi 1015 = experiment: In vitro antibacterial activity, two-fold agar-plate dilution method (MIC); assay type: cell-based
Protocol: (§1) In vitro antibacterial activity was determined by the two-fold agar-plate dillution method.
(§2) One loopful of an overnight culture of each test starin in Trypticase-soy broth (10^6 viable cells per mt) was streaked on heart infusion agar (Muller-Hinton Agar) containing graded concentrations of representative test compound, and the minimal inhibitory concentration (MIC) was expressed in terms of µg/ml after incubation at 37°C for 16 hours.
(§3) In vitro antibacterial activities of other compounds of the present invention were determined in the same way as in Example 26.

[1] = tested on: Pseudomonas aeruginosa IFO3445; experiment: as above; assay type: cell-based; details: Pseudomonas aeruginosa IFO3445, agar dilution, 37°C for 16 hours
Protocol: as §1, §2, §3

[2] = tested on: Serratia marcescens IAM1184; experiment: as above; assay type: cell-based
Protocol: as §1, §2, §3

Proleus morgani IFO3848 = experiment: as above; assay type: cell-based; details: 37°C for 16 hours
Protocol: as §1, §2, §3

[3] = tested on: Proleus vulgaris IFO 3850; experiment: as above; assay type: cell-based
Protocol: as §1, §2, §3

Staphyrococcus Terajima = experiment: as above; assay type: cell-based; details: Staphyrococcus Terajima, agar dilution, 37°C for 16 hours
Protocol: as §1, §2, §3

Enterobacter cloacae 963 = experiment: as above; assay type: cell-based; details: Enterobacter cloacae 963, agar dilution, 37°C for 16 hours
Protocol: as §1, §2, §3

Proleus vulgaria OX-19 = experiment: as above; assay type: cell-based; details: 37°C for 16 hours
Protocol: as §1, §2, §3

E.coli 81 [4] = experiment: MIC in E.coli 81 (Table IV); assay type: cell-based; details: Escherichia coli, 81, 16 h, read-out: MIC (μg/mℓ) in E.coli 81
Protocol: as §1, §2

E.coli 81 [5] = experiment: In vivo antibacterial activity: survival of mice infected with E.coli 81; design: species or system ICR strain male mice
Protocol: Experiment was performed in ICR strain male mice (5W) weighing 22 to 25 g. The animals were used in a group of 10 per regimen. Test organism, E.coli 81, was cultured on Mueller-Hinton agar over night at 37°C and suspended in saline to be one minimal lethal dose (5 x 10^5 cells/head). One mililitre of the bacterial suspension was injected intrapenetoreally and, after 15 minutes, mice were treated subcutaneously with various doses of compound (100) and comparative compound B. Survival mice were counted for 4 days and final observation was carried out on day 4.

[6] = tested on: Staphyrococcus aureus MS 353; experiment: In vitro antibacterial activity, two-fold agar-plate dilution method (MIC); assay type: cell-based; details: Staphyrococcus aureus MS 353; agar dilution, 37°C for 16 hours; read-out: MIC
Protocol: as §1, §2

[7] = tested on: Butilus subtilis ATCC6633; experiment: as above; assay type: cell-based; details: 37°C for 16 hours
Protocol: as §1, §2

[8] = tested on: Staphyrococcus aureus FDA209JC-1; experiment: as above; assay type: cell-based; details: Staphyrococcus aureus FDA209JC-1; agar dilution, 37°C for 16 hours; read-out: MIC
Protocol: as §1, §2

[9] = tested on: Pseudomonas aeruginosa NCTC10490; experiment: as above; assay type: cell-based; details: Pseudomonas aeruginosa NCTC10490; agar dilution, 37°C for 16 hours; read-out: MIC
Protocol: as §1, §2

[10] = tested on: Pseudomonas aeruginosa PAO1; experiment: as above; assay type: cell-based; details: Pseudomonas aeruginosa PAO1; agar dilution, 37°C for 16 hours; read-out: MIC
Protocol: as §1, §2

[11] = tested on: Salmonera schottmuelleri 8001; experiment: as above; assay type: cell-based; details: 37°C for 16 hours
Protocol: as §1, §2

[12] = tested on: Salmonera typhimurium IID 971; experiment: as above; assay type: cell-based; details: 37°C for 16 hours
Protocol: as §1, §2

[13] = tested on: Staphyrococcus pyogenes COOK; experiment: as above; assay type: cell-based; details: Staphyrococcus pyogenes COOK; agar dilution, 37°C for 16 hours; read-out: MIC
Protocol: as §1, §2

[14] = tested on: Escherichia coli K-12C-600; experiment: as above; assay type: cell-based; details: K12C600, 37°C for 16 hours
Protocol: as §1, §2

[15] = tested on: Micrococcus luteus ATCC9341; experiment: as above; assay type: cell-based; details: Micrococcus luteus ATCC9341; agar dilution, 37°C for 16 hours; read-out: MIC
Protocol: as §1, §2

E.coli 81 [16] = experiment: Duration of antibiotic activity: survival of mice dosed before E.coli 81 infection; assay type: in vivo, ICR strain male mice
Protocol: The duration of antibiotic activity of compound (100) was determined.
Experiment was performed in ICR strain male mice (5W). The animals were used in a group of 10 per regimen. A solution of E.coli 81 was injected intrapenetreally at a dose of 5 x 10^5 cell/head. Before one or three hours, the compound (100) was injected subcutaneously at a dose of 0.5 mg/head. Survival mice were counted on day 4 after injection.

[17] = Serratia marcescens IAM1184, agar dilution, 37°C for 16 hours, read-out: MIC
[18] = Proleus vulgaris IFO 3850, agar dilution, 37°C for 16 hours, read-out: MIC

## CO/N=C(\C(=O)N[C@@H]1C(=O)N2C(C(=O)[O-])=C(C[N+]34CCCCC3CCCC4)CS[C@H]12)c1csc(N)n1 (stereo partly drawn) [Compound (104), (6R,7R)-[(Z)-2-(2-aminothiazol-4-yl)-2-methoxyiminoacetoamido]-3-(1-azabicyclo [4,4,0]decane-1-io) methyl-3-cephem-4-carboxylate]
Salmonera paratyphi 1015; 16 h
  MIC: 0.025 µg/mL (≈ 0.0468 µM)
[1]; read-out: MIC
  MIC: 1.56 µg/mL (≈ 2.92 µM)
[2]; [17]
  MIC: 0.025 µg/mL (≈ 0.0468 µM)
Proleus morgani IFO3848; read-out: MIC
  MIC: 0.0125 µg/mL (≈ 0.0234 µM)
[3]; [18]
  MIC: 0.0125 µg/mL (≈ 0.0234 µM)
Staphyrococcus Terajima; read-out: MIC
  MIC: 0.39 µg/mL (≈ 0.729 µM)
Enterobacter cloacae 963; read-out: MIC
  MIC: 0.1 µg/mL (≈ 0.187 µM)
Proleus vulgaria OX-19; read-out: MIC
  MIC: 0.025 µg/mL (≈ 0.0468 µM)

## CO/N=C(\C(=O)N[C@@H]1C(=O)N2C(C(=O)[O-])=C(C[N+]34CCC(CC3)C(=O)C4)CS[C@H]12)c1csc(N)n1 [Compound (300), (6R,7R)-7-[(Z)-2-(2-aminothiazol-4-yl)-2-methoxyiminoacetoamido]-3-(1-aza-3-carbonyl-bicyclo[2,2,2]octane-l-io)methyl-3-cephem-4-carboxylate]
Salmonera paratyphi 1015; 16 h
  MIC: 0.0125 µg/mL (≈ 0.024 µM)
[1]; read-out: MIC
  MIC: 0.39 µg/mL (≈ 0.749 µM)
[2]; Serratia marcescens, IAM1184, 16 h
  MIC: 0.0125 µg/mL (≈ 0.024 µM)
Proleus morgani IFO3848; read-out: MIC
  MIC: > 0.0063 µg/mL
[3]; 16 h
  MIC: 0.0125 µg/mL (≈ 0.024 µM)
Staphyrococcus Terajima; read-out: MIC
  MIC: 0.2 µg/mL (≈ 0.384 µM)
Enterobacter cloacae 963; read-out: MIC
  MIC: 0.025 µg/mL (≈ 0.048 µM)
Proleus vulgaria OX-19; read-out: MIC
  MIC: 0.025 µg/mL (≈ 0.048 µM)

## CO/N=C(\C(=O)N[C@@H]1C(=O)N2C(C(=O)[O-])=C(C[N+]34CCCC3CCC4C)CS[C@H]12)c1csc(N)n1 (stereo partly drawn) [Compound (106), (6R,7R)-7-[(Z)-2-(2-aminothiazol-4-yℓ)-2-methoxyiminoacetoamido]-3-(l-aza-8-methl-bicyclo[3,3,0]octane-l-io)methyl-3-cephem-4-carboxylate]
Salmonera paratyphi 1015; Salmonera paratyphi 1015, agar dilution, 37°C for 16 hours
  MIC: 0.025 µg/mL (≈ 0.048 µM)
[1]
  MIC: 0.78 µg/mL (≈ 1.5 µM)
[2]; Serratia marcescens IAM1184, agar dilution, 37°C for 16 hours
  MIC: 0.05 µg/mL (≈ 0.096 µM)
Proleus morgani IFO3848
  MIC: 0.025 µg/mL (≈ 0.048 µM)
[3]; Proleus vulgaris IFO 3850, agar dilution, 37°C for 16 hours
  MIC: 0.0125 µg/mL (≈ 0.024 µM)
Staphyrococcus Terajima
  MIC: 0.2 µg/mL (≈ 0.384 µM)
Enterobacter cloacae 963
  MIC: 0.2 µg/mL (≈ 0.384 µM)
Proleus vulgaria OX-19
  MIC: 0.025 µg/mL (≈ 0.048 µM)

## CO/N=C(\C(=O)N[C@@H]1C(=O)N2C(C(=O)[O-])=C(C[N+]34CCC(CC3)C4)CS[C@H]12)c1csc(N)n1 [Compound (200), (6R,7R)-7-[(Z)-2-(2-aminothiazol-4-yℓ)-2-methoxyiminoacetoamido]-3-(1-azabicyclo[2,2,1]heptane-l-io)methyl-3-cephem-4-carboxylate]
Salmonera paratyphi 1015; 16 h
  MIC: 0.025 µg/mL (≈ 0.0508 µM)
[1]; read-out: MIC
  MIC: 1.56 µg/mL (≈ 3.17 µM)
[2]; [17]
  MIC: 0.025 µg/mL (≈ 0.0508 µM)
Proleus morgani IFO3848; read-out: MIC
  MIC: 0.0063 µg/mL (≈ 0.0128 µM)
[3]; [18]
  MIC: 0.0125 µg/mL (≈ 0.0254 µM)
Staphyrococcus Terajima; read-out: MIC
  MIC: 0.2 µg/mL (≈ 0.406 µM)
Enterobacter cloacae 963; read-out: MIC
  MIC: 0.05 µg/mL (≈ 0.102 µM)
Proleus vulgaria OX-19; read-out: MIC
  MIC: 0.05 µg/mL (≈ 0.102 µM)

## CO/N=C(\C(=O)N[C@@H]1C(=O)N2C(C(=O)[O-])=C(C[N+]34CCCC3CCC4)CS[C@H]12)c1csc(N)n1 (stereo partly drawn) [Compound (100), (6R,7R)-7-[(Z)-2-(2-aminothiazol-4-yl)-2-meth-oxyiminoacetoamido]-3-(1-azabicyclo[3,3,0]octane-l-io)methyl-3-cephem-4-carboxylate]
E.coli 81 [4]
  MIC: 0.025 µg/mL (≈ 0.0493 µM)
E.coli 81 [5]; Dose 0.016 mg/head subcutaneously 15 minutes after intraperitoneal E.coli 81 (5 x 10^5 cells/head)
  Survivals percent (%) on day 4: 40%
E.coli 81 [5]; Dose 0.032 mg/head subcutaneously 15 minutes after intraperitoneal E.coli 81 (5 x 10^5 cells/head)
  Survivals percent (%) on day 4: 40%
E.coli 81 [5]; Dose 0.063 mg/head subcutaneously 15 minutes after intraperitoneal E.coli 81 (5 x 10^5 cells/head)
  Survivals percent (%) on day 4: 50%
E.coli 81 [5]; Dose 0.125 mg/head subcutaneously 15 minutes after intraperitoneal E.coli 81 (5 x 10^5 cells/head)
  Survivals percent (%) on day 4: 100%
E.coli 81 [5]; Dose 0.25 mg/head subcutaneously 15 minutes after intraperitoneal E.coli 81 (5 x 10^5 cells/head)
  Survivals percent (%) on day 4: 100%
E.coli 81 [5]; Dose 0.5 mg/head subcutaneously 15 minutes after intraperitoneal E.coli 81 (5 x 10^5 cells/head)
  Survivals percent (%) on day 4: 100%
[1]; read-out: MIC
  MIC: 1.56 µg/mL (≈ 3.08 µM)
Staphyrococcus Terajima; read-out: MIC
  MIC: 0.39 µg/mL (≈ 0.77 µM)
Enterobacter cloacae 963; read-out: MIC
  MIC: 0.05 µg/mL (≈ 0.0987 µM)
[6]
  MIC: 0.2 µg/mL (≈ 0.395 µM)
[7]
  MIC: 0.39 µg/mL (≈ 0.77 µM)
[8]
  MIC: 0.39 µg/mL (≈ 0.77 µM)
[9]
  MIC: 0.025 µg/mL (≈ 0.0493 µM)
[10]
  MIC: 0.1 µg/mL (≈ 0.197 µM)
[11]
  MIC: < 0.0063 µg/mL
[12]
  MIC: 0.05 µg/mL (≈ 0.0987 µM)
[13]
  MIC: < 0.0063 µg/mL
[14]
  MIC: 0.05 µg/mL (≈ 0.0987 µM)
[15]
  MIC: < 0.0063 µg/mL
E.coli 81 [16]; 0.5 mg/head subcutaneously one hour before intraperitoneal E.coli 81 (5 x 10^5 cell/head), survival on day 4, mice
  Survival percent (%) Injection before one hour: 100%
E.coli 81 [16]; 0.5 mg/head subcutaneously three hours before intraperitoneal E.coli 81 (5 x 10^5 cell/head), survival on day 4, mice
  Survival percent (%) Injection before three hours: 100%
E.coli 81 [16]; conclusion in words drawn from Table IV
  duration of antibiotic activity: excellent in duration of antibabiotic activity
